The compounds below were run against Human recombinant carboxy-terminal his-tagged LDHA (amino acids 2-332) (Homo sapiens, UniProt P00338) (assay: LDHA enzyme inhibition assay (NADH fluorescence)). Details: LDHA IC50 (μM), 1 nM LDHA, NADH and pyruvate, stereochemistry of tested sample given.

SMILES	IC50
COCc1ccccc1Oc1cccc(C2(c3ccsc3)CC(=O)C(Sc3ccccc3Cl)C(=O)N2)n1 (centres unmarked) [Example 94]	0.023 µM
O=C1C[C@@](c2ccsc2)(c2cccc(OCCC3CC3)n2)NC(=O)C1Sc1ccccc1Cl (stereo partly drawn) [Example 95, (6R)-3-((2-chlorophenyl)thio)-6-(6-(2-cyclo-propylethoxy)pyridin-2-yl)-6-(thiophen-3-yl) piperidine-2,4-dione]	0.29 µM
O=C1CC(c2ccsc2)(c2cccc(Oc3ccccn3)n2)NC(=O)C1Sc1ccccc1Cl (centres unmarked) [Example 96, 3-(2-chlorophenyl)sulfanyl-6-[6-(2-pyridyloxy)-2-pyridyl]-6-(3-thienyl) piperidine-2,4-dione]	0.019 µM
O=C1CC(c2ccsc2)(c2cccc(Oc3ccc(F)c4cccnc34)n2)NC(=O)C1Sc1ccccc1Cl (centres unmarked) [Example 98, 3-(2-chlorophenyl)sulfanyl-6-[6-[(5-fluoro-8-quinolyl)oxy]-2-pyridyl]-6-(3-thienyl)piperidine-2,4-dione]	0.167 µM
O=C1CC(c2ccsc2)(c2cccc(Oc3cccc4cccnc34)n2)NC(=O)C1Sc1ccccc1Cl (centres unmarked) [Example 100, 3-((2-chlorophenyl)thio)-6-(6-(quinolin-8-yloxy)pyridin-2-yl)-6-(thiophen-3-yl)piperidine-2,4-dione]	0.046 µM
COCc1ccccc1Oc1cccc(C2(c3ccsc3)CC(=O)C(Sc3ccccc3Cl)C(=O)N2)n1 (centres unmarked) [Example 101]	0.018 µM
O=C1CC(c2ccsc2)(c2cccc(Oc3cccc4c3NCCC4)n2)NC(=O)C1Sc1ccccc1Cl (centres unmarked) [Example 102, 3-(2-chlorophenyl)sulfanyl-6-[6-(1,2,3,4-tetrahydro-quinolin-8-yloxy)-2-pyridyl]-6-(3-thienyl) piperidine-2,4-dione]	0.018 µM
O=C1CC(c2ccsc2)(c2cccc(Oc3cccc4[nH]ncc34)n2)NC(=O)C1Sc1ccccc1Cl (centres unmarked) [Example 103, 3-(2-chlorophenyl)sulfanyl-6-[6-(1H-indazol-4-yloxy)-2-pyridyl]-6-(3-thienyl) piperidine-2,4-dione]	0.141 µM
O=C1CC(c2ccsc2)(c2cccc(N3CCCc4cccc(O)c43)n2)NC(=O)C1Sc1ccccc1Cl (centres unmarked) [Example 105, 3-(2-chlorophenyl)sulfanyl-6-[6-(8-hydroxy-3,4-dihydro-2H-quinolin-1-yl)-2-pyridyl]-9-(3-thienyl)piperidine-2,4-dione]	0.125 µM
O=C1CC(c2ccc(N3CCC(F)CC3)cc2)(c2ccsc2)NC(=O)C1Sc1ccccc1Cl (centres unmarked) [Example 107, 3-(2-chlorophenyl)sulfanyl-6-[4-(4-fluoro-1-piperidyl)phenyl]-6-(3-thienyl)piperidine-2,4-dione]	0.131 µM
O=C1CC(c2ccsc2)(c2cccc(NCCC3CC3)n2)NC(=O)C1Sc1ccccc1Cl (centres unmarked) [Example 131, 3-(2-chlorophenyl)sulfanyl-6-[6-(2-cyclopropyl-ethylamino)-2-pyridyl]-6-(3-thienyl)piperidine-2,4-dione]	0.046 µM
O=C1CC(c2ccsc2)(c2cccc(NCCC3CC3)n2)NC(=O)C1Sc1ccccc1Cl (centres unmarked) [Example 138, 3-(2-chlorophenyl)sulfanyl-6-[6-(2-cyclopropyl-ethylamino)-2-pyridyl]-6-(3-thienyl)piperidine-2,4-dione]	0.025 µM
O=C1CC(c2ccsc2)(c2cccc(Oc3ccc(F)c(C(F)(F)F)c3)n2)NC(=O)C1Sc1ccccc1Cl (centres unmarked) [Example 150, 3-(2-chlorophenyl)sulfanyl-6-[6-[4-fluoro-3-(trifluoromethyl)phenoxy]-2-pyridyl]-6-(3-thienyl) piperidine-2,4-dione]	0.019 µM
O=C1CC(c2ccsc2)(c2cccc(Cc3cc(F)cc(F)c3)n2)NC(=O)C1Sc1ccccc1Cl (centres unmarked) [Example 151, 3-(2-chlorophenyl)sulfanyl-6-[6-[(3,5-difluorophenyl)methyl]-2-pyridyl]-6-(3-thienyl)piperidine-2,4-dione]	0.015 µM
CCC(C)COc1cccc(C2(c3ccsc3)CC(=O)C(Sc3ccccc3Cl)C(=O)N2)n1 (centres unmarked) [Example 164, 3-(2-chlorophenyl)sulfanyl-6-[6-(2-methylbutoxy)-2-pyridyl]-6-(3-thienyl) piperidine-2,4-dione]	0.009 µM
O=C1CC(c2ccsc2)(c2cccc(NCCC3CC3)n2)NC(=O)C1Sc1ccccc1Cl (centres unmarked) [Example 173, 3-(2-chlorophenyl)sulfanyl-6-[6-(2-cyclopropyl-ethylamino)-2-pyridyl]-6-(3-thienyl)piperidine-2,4-dione]	0.183 µM
O=C1CC(c2ccsc2)(c2cccc(NCCC3CC3)n2)NC(=O)C1Sc1ccccc1Cl (centres unmarked) [Example 174, 3-(2-chlorophenyl)sulfanyl-6-[6-(2-cyclopropyl-ethylamino)-2-pyridyl]-6-(3-thienyl)piperidine-2,4-dione]	0.068 µM
O=C1CC(c2ccsc2)(c2cccc(Oc3ccc(Cl)cc3)n2)NC(=O)C1Sc1ccccc1Cl (centres unmarked) [Example 175, 6-[6-(4-chlorophenoxy)-2-pyridyl]-3-(2-chlorophenyl) sulfanyl-6-(3-thienyl) piperidine-2,4-dione]	0.013 µM
O=C1CC(c2ccsc2)(c2cccc(N3CCc4ccc(CO)cc43)n2)NC(=O)C1Sc1ccccc1Cl (centres unmarked) [Example 177, 3-(2-chlorophenyl)sulfanyl-6-[6-[6-(hydroxymethyl)indolin-1-yl]-2-pyridyl]-6-(3-thienyl)piperidine-2,4-dione]	0.016 µM
CC(COc1cccc(C2(c3ccsc3)CC(=O)C(Sc3ccccc3Cl)C(=O)N2)n1)C1CC1 (centres unmarked) [Example 179, 3-((2-chlorophenyl)thio)-6-(6-(2-cyclopropyl-propoxy)pyridin-2-yl)-6-(thiophen-3-yl)piperidine-2,4-dione]	0.014 µM

Further compounds by falling IC50, results first:

IC50	SMILES
0.013 µM	O=C1CC(c2ccsc2)(c2cccc(Oc3cccc4cnccc34)n2)NC(=O)C1Sc1ccccc1Cl (centres unmarked) [Example 90, 3-((2-chlorophenyl)thio)-6-(6-(isoquinolin-5-yloxy)pyridin-2-yl)-6-(thiophen-3-yl)piperidine-2,4-dione]
0.012 µM	O=C1CC(c2ccsc2)(c2cccc(Oc3cccc4c3NCCC4)n2)NC(=O)C1Sc1ccccc1Cl (centres unmarked) [Example 111, 3-((2-chlorophenyl)thio)-6-(6-((1,2,3,4-tetrahydro-quinolin-8-yl)oxy)pyridin-2-yl)-6-(thiophen-3-yl)piperidine-2,4-dione]
0.012 µM	O=C1CC(c2ccsc2)(c2cccc(Oc3cccc(C(F)(F)F)c3)n2)NC(=O)C1Sc1ccccc1Cl (centres unmarked) [Example 140, 3-(2-chlorophenyl)sulfanyl-6-(3-thienyl)-6-[6-[3-(trifluoromethyl)phenoxy]-2-pyridyl]piperidine-2,4-dione]
0.012 µM	O=C1CC(c2ccsc2)(c2cccc(Oc3cccc(C(F)(F)F)c3)n2)NC(=O)C1Sc1ccccc1Cl (centres unmarked) [Example 153, 3-(2-chlorophenyl)sulfanyl-6-(3-thienyl)-6-[6-[3-(trifluoromethyl)phenoxy]-2-pyridyl]piperidine-2,4-dione]
0.01 µM	O=C1CC(c2ccsc2)(c2cccc(Oc3cccc4c3NCCC4)n2)NC(=O)C1Sc1ccccc1Cl (centres unmarked) [Example 109, 3-((2-chlorophenyl)thio)-6-(6-((1,2,3,4-tetrahydro-quinolin-8-yl)oxy)pyridin-2-yl)-6-(thiophen-3-yl)piperidine-2,4-dione]
0.01 µM	O=C1CC(c2ccsc2)(c2cccc(Oc3cccc(C(F)(F)F)c3)n2)NC(=O)C1Sc1ccccc1Cl (centres unmarked) [Example 169, 3-(2-chlorophenyl)sulfanyl-6-(3-thienyl)-6-[6-[3-(trifluoromethyl)phenoxy]-2-pyridyl]piperidine-2,4-dione]
0.009 µM	O=C1CC(c2ccsc2)(c2cccc(Oc3ccc(F)c(C(F)F)c3)n2)NC(=O)C1Sc1ccccc1Cl (centres unmarked) [Example 139, 3-(2-chlorophenyl)sulfanyl-6-[6-[3-(difluoro-methyl)-4-fluoro-phenoxy]-2-pyridyl]-6-(3-thienyl) piperidine-2,4-dione]
0.008 µM	COc1cc(F)cc(Cc2cccc(C3(c4ccsc4)CC(=O)C(Sc4ccccc4Cl)C(=O)N3)n2)c1 (centres unmarked) [Example 147, 3-((2-chlorophenyl)thio)-6-(6-(3-fluoro-5-methoxy-benzyl)pyridin-2-yl)-6-(thiophen-3-yl)piperidine-2,4-dione]
0.007 µM	O=C1C[C@](c2ccsc2)(c2cccc(OCCC3CC3)n2)NC(=O)C1Sc1ccccc1Cl (stereo partly drawn) [Example 92, (6S)-3-((2-chlorophenyl)thio)-6-(6-(2-cyclopropyl-ethoxy)pyridin-2-yl)-6-(thiophen-3-yl)piperidine-2,4-dione]
0.006 µM	O=C1CC(c2ccsc2)(c2cccc(Oc3ccc(F)c(C(F)(F)F)c3)n2)NC(=O)C1Sc1ccccc1Cl (centres unmarked) [Example 123]
0.006 µM	O=C1CC(c2ccsc2)(c2cccc(Oc3ccc(F)c(C(F)F)c3)n2)NC(=O)C1Sc1ccccc1Cl (centres unmarked) [Example 152, 3-(2-chlorophenyl)sulfanyl-6-[6-[3-(difluoromethyl)-4-fluoro-phenoxy]-2-pyridyl]-6-(3-thienyl) piperidine-2,4-dione]
0.006 µM	O=C1CC(c2ccsc2)(c2cccc(Oc3ccc(Cl)cc3)n2)NC(=O)C1Sc1ccccc1Cl (centres unmarked) [Example 167, 6-[6-(4-chlorophenoxy)-2-pyridyl]-3-(2-chlorophenyl) sulfanyl-6-(3-thienyl) piperidine-2,4-dione]
0.005 µM	O=C1CC(c2ccsc2)(c2cccc(Cc3ccc(Cl)c(F)c3)n2)NC(=O)C1Sc1ccccc1Cl (centres unmarked) [Example 130, 6-(6-(4-chloro-3-fluoro-benzyl)pyridin-2-yl)-3-((2-chlorophenyl)thio)-6-(thiophen-3-yl)piperidine-2,4-dione]
0.005 µM	CC1CC1COc1cccc(C2(c3ccsc3)CC(=O)C(Sc3ccccc3Cl)C(=O)N2)n1 (centres unmarked) [Example 183, 3-(2-chlorophenyl)sulfanyl-6-[6-[(2-methylcyclo-propyl)methoxy]-2-pyridyl]-6-(3-thienyl)piperidine-2,4-dione]
0.004 µM	O=C1CC(c2ccsc2)(c2cccc(N3CC(C4CCOCC4)C3)n2)NC(=O)C1Sc1ccccc1Cl (centres unmarked) [Example 162, 3-(2-chlorophenyl)sulfanyl-6-[6-(3-tetrahydropyran-4-ylazetidin-1-yl)-2-pyridyl]-6-(3-thienyl) piperidine-2,4-dione]
